# Data as given in PubChem BioAssay AID2060511 (Molecular Pharmacology Branch, DTP, NCI, 2025).
# System: 422866-222-R5-J1-PDC spheroids with HUVEC/MSC, viability
# Test: Anticancer human tumor 422866-222-R5-J1-PDC patient-derived pancreatic adenocarcinoma cell line growth inhibition [GQUAD]
# Conditions: for IC50: curve of first compound; for viability, T/C: stronger effect = lower value
# How it was run: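 Viability of tumor cells grown as complex spheroids with endothelial and stromal cells, exposed to drug combinations. Top concentration at or near clinical Cmax (else 10 microM), diluted in half-log increments.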
# [1] = second compound 0.0316 µM, first compound 0.0316 µM
# [2] = second compound 0.0316 µM, first compound 0.1 µM
# [3] = second compound 0.0316 µM, first compound 0.316 µM
# [4] = second compound 0.0316 µM, first compound 1 µM
# [5] = second compound 0.0316 µM, first compound 3.16 µM
# [6] = second compound 0.0316 µM, first compound 10 µM
# [7] = second compound 0.1 µM, first compound 0.0316 µM
# [8] = second compound 0.1 µM, first compound 0.1 µM
# [9] = second compound 0.1 µM, first compound 0.316 µM
# [10] = second compound 0.1 µM, first compound 1 µM
# [11] = second compound 0.1 µM, first compound 3.16 µM
# [12] = second compound 0.1 µM, first compound 10 µM
# [13] = second compound 0.316 µM, first compound 0.0316 µM
# [14] = second compound 0.316 µM, first compound 0.1 µM
# [15] = second compound 0.316 µM, first compound 0.316 µM
# [16] = second compound 0.316 µM, first compound 1 µM
# [17] = second compound 0.316 µM, first compound 3.16 µM
# [18] = second compound 0.316 µM, first compound 10 µM
# [19] = second compound 1 µM, first compound 0.0316 µM
# [20] = second compound 1 µM, first compound 0.1 µM
# [21] = second compound 1 µM, first compound 0.316 µM
# [22] = second compound 1 µM, first compound 1 µM
# [23] = second compound 1 µM, first compound 3.16 µM
# [24] = second compound 1 µM, first compound 10 µM
# [25] = second compound 3.16 µM, first compound 0.0316 µM
# [26] = second compound 3.16 µM, first compound 0.1 µM
# [27] = second compound 3.16 µM, first compound 0.316 µM
# [28] = second compound 3.16 µM, first compound 1 µM
# [29] = second compound 3.16 µM, first compound 3.16 µM
# [30] = second compound 3.16 µM, first compound 10 µM
# [31] = second compound 10 µM, first compound 0.0316 µM
# [32] = second compound 10 µM, first compound 0.1 µM
# [33] = second compound 10 µM, first compound 0.316 µM
# [34] = second compound 10 µM, first compound 1 µM
# [35] = second compound 10 µM, first compound 3.16 µM
# [36] = second compound 10 µM, first compound 10 µM
# 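Further: spheroids exposed to compounds for seven days before reading.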
# 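Wherever viability, T/C is given: percent viability relative to DMSO vehicle control taken as 100%.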
compound,measurement,setting,value
COc1ncnc(C2CC2)c1-c1ncc2cnn(Cc3ccc(-c4nc(C(F)(F)F)cn4C(C)C)cc3)c2n1 + Cc1[nH]c2ccc(F)cc2c1-c1nc2c3cccnc3c3ncccc3c2[nH]1,IC50,second compound 0.0316 µM,8.04 µM
same,IC50,second compound 0.1 µM,> 10 µM
same,IC50,second compound 0.316 µM,> 10 µM
same,IC50,second compound 1 µM,> 10 µM
same,IC50,second compound 3.16 µM,> 10 µM
same,IC50,second compound 10 µM,> 10 µM
same,"viability, T/C",[1],91.9%
same,"viability, T/C",[2],96.2%
same,"viability, T/C",[3],111%
same,"viability, T/C",[4],87.1%
same,"viability, T/C",[5],64.6%
same,"viability, T/C",[6],46.4%
same,"viability, T/C",[7],106%
same,"viability, T/C",[8],97.4%
same,"viability, T/C",[9],110%
same,"viability, T/C",[10],99.2%
same,"viability, T/C",[11],63.1%
same,"viability, T/C",[12],49.8%
same,"viability, T/C",[13],93%
same,"viability, T/C",[14],116%
same,"viability, T/C",[15],106%
same,"viability, T/C",[16],90.1%
same,"viability, T/C",[17],66.3%
same,"viability, T/C",[18],55.2%
same,"viability, T/C",[19],86%
same,"viability, T/C",[20],110%
same,"viability, T/C",[21],105%
same,"viability, T/C",[22],104%
same,"viability, T/C",[23],72.7%
same,"viability, T/C",[24],54.2%
same,"viability, T/C",[25],67.6%
same,"viability, T/C",[26],70.7%
same,"viability, T/C",[27],71.7%
same,"viability, T/C",[28],77.5%
same,"viability, T/C",[29],63.6%
same,"viability, T/C",[30],60.8%
same,"viability, T/C",[31],58.2%
same,"viability, T/C",[32],53.3%
same,"viability, T/C",[33],73.5%
same,"viability, T/C",[34],47.7%
same,"viability, T/C",[35],60.6%
same,"viability, T/C",[36],50.2%
COc1cc(C2c3cc4c(cc3C(OC3OC5COC(C)OC5C(O)C3O)C3COC(=O)C23)OCO4)cc(OC)c1O (stereo unspecified) + Cc1[nH]c2ccc(F)cc2c1-c1nc2c3cccnc3c3ncccc3c2[nH]1,IC50,second compound 0.0316 µM,1.57 µM
same,IC50,second compound 0.1 µM,0.835 µM
same,IC50,second compound 0.316 µM,2.05 µM
same,IC50,second compound 1 µM,1.92 µM
same,IC50,second compound 3.16 µM,0.945 µM
same,IC50,second compound 10 µM,2.23 µM
same,"viability, T/C",[1],108%
same,"viability, T/C",[2],96.3%
same,"viability, T/C",[3],86.6%
same,"viability, T/C",[4],51.3%
same,"viability, T/C",[5],47.8%
same,"viability, T/C",[6],40.2%
same,"viability, T/C",[7],100%
same,"viability, T/C",[8],104%
same,"viability, T/C",[9],68.5%
same,"viability, T/C",[10],52%
same,"viability, T/C",[11],48.6%
same,"viability, T/C",[12],36.6%
same,"viability, T/C",[13],97.7%
same,"viability, T/C",[14],87.9%
same,"viability, T/C",[15],75.2%
same,"viability, T/C",[16],56.8%
same,"viability, T/C",[17],45.5%
same,"viability, T/C",[18],39.8%
same,"viability, T/C",[19],97.1%
same,"viability, T/C",[20],92.2%
same,"viability, T/C",[21],85.8%
same,"viability, T/C",[22],59.7%
same,"viability, T/C",[23],42.5%
same,"viability, T/C",[24],38.5%
same,"viability, T/C",[25],82.8%
same,"viability, T/C",[26],90.3%
same,"viability, T/C",[27],75.5%
same,"viability, T/C",[28],48.6%
same,"viability, T/C",[29],48.5%
same,"viability, T/C",[30],38.5%
same,"viability, T/C",[31],87.8%
same,"viability, T/C",[32],89.2%
same,"viability, T/C",[33],77.4%
same,"viability, T/C",[34],56.5%
same,"viability, T/C",[35],46.5%
same,"viability, T/C",[36],46.8%
O=c1[nH]cc(F)c(=O)[nH]1 + Cc1[nH]c2ccc(F)cc2c1-c1nc2c3cccnc3c3ncccc3c2[nH]1,IC50,second compound 0.0316 µM,> 10 µM
same,IC50,second compound 0.1 µM,> 10 µM
same,IC50,second compound 0.316 µM,> 10 µM
same,IC50,second compound 1 µM,> 10 µM
same,IC50,second compound 3.16 µM,> 10 µM
same,IC50,second compound 10 µM,> 10 µM
same,"viability, T/C",[1],95%
same,"viability, T/C",[2],101%
same,"viability, T/C",[3],101%
same,"viability, T/C",[4],93.8%
same,"viability, T/C",[5],84.5%
same,"viability, T/C",[6],69.1%
same,"viability, T/C",[7],97.9%
same,"viability, T/C",[8],111%
same,"viability, T/C",[9],105%
same,"viability, T/C",[10],84.2%
same,"viability, T/C",[11],79.9%
same,"viability, T/C",[12],60.5%
same,"viability, T/C",[13],103%
same,"viability, T/C",[14],95.8%
same,"viability, T/C",[15],114%
same,"viability, T/C",[16],73.2%
same,"viability, T/C",[17],82.6%
same,"viability, T/C",[18],74%
same,"viability, T/C",[19],101%
same,"viability, T/C",[20],105%
same,"viability, T/C",[21],101%
same,"viability, T/C",[22],101%
same,"viability, T/C",[23],89.6%
same,"viability, T/C",[24],72.9%
same,"viability, T/C",[25],85.7%
same,"viability, T/C",[26],99.3%
same,"viability, T/C",[27],95.4%
same,"viability, T/C",[28],81.4%
same,"viability, T/C",[29],86.9%
same,"viability, T/C",[30],64%
same,"viability, T/C",[31],74.9%
same,"viability, T/C",[32],79.7%
same,"viability, T/C",[33],85.3%
same,"viability, T/C",[34],72%
same,"viability, T/C",[35],75.5%
same,"viability, T/C",[36],53.3%
